Assay results reported in patent US5849587A, “Method of inhibiting viral replication in eukaryotic cells and of inducing apoptosis of virally-infected cells” (Cornell Research Foundation, Inc., priority 1995, dated 1998).

Tests used:
[1] = system: uninfected parent cell line CEM; test: Cell membrane integrity / viability, uninfected parent cells; assay type: cell-based, human; details: incubation and withdrawal, FIG. 12B
Procedure: FIGS. 12A and B show the loss of cell membrane integrity suffered by HIV-1 producing ACH-2 cells and their uninfected parent cell line CEM during incubation with and after withdrawal of mimosine and HK-1. The black bar indicates the duration of inhibitor exposure, the open bar the duration of inhibitor withdrawal. Cell membrane integrity was determined by the ability of the cells to exclude the low-molecular weight dye trypan blue (FIGS. 12A and B) and to retain the spermidine-derived radioactive label of a single, obligatory intracellular protein species, eIF-5A and its deoxyhypusyl precursor (FIG. 12A).
ACH-2 cells were incubated with hypusine inhibitors (mimosine, HK-1) and induced with PMA as outlined in Example II A, except that the duration of exposure to inhibitor was extended to 18-21 hours and that cells were labeled as detailed in Example I B. Half of the cells were then harvested and processed for detection of apoptosis, while the other half was washed free of inhibitors and re-incubated in fresh medium for 2-4 hours, followed by harvesting and processing for detection of […] apoptosis. Using the same protocol, cultures of the parent CEM cell line were incubated in parallel. […]

[2] = system: HIV-1 RNA; test: Splicing analysis (Northern blot) of HIV-1 RNA in PMA-induced ACH-2 cells; assay type: cell-based; details: 200 μM, FIG. 7
From the text: At about 9-kb is the position of unspliced viral MRNA species representing the infectious viral genome and encoding key structural proteins for core and capsid. At about 4-kb is the position of incompletely spliced viral MRNA species encoding structural and regulatory proteins. At about 2-kb is the position of completely spliced viral MRNA species encoding regulatory proteins, such as Rev. […] Lane B is for the high level expression of HIV-1 RNA after induction with PMA; note the presence of the 9-kb species.
ACH-2 cells were incubated with hypusine inhibitors (mimosine, HK-1) and induced with PMA as outlined in Example II A. From control cells, from cells induced with PMA, and from PMA-induced cells treated with 200 μM mimosine/HK-1, in each case aliqouts of 1.2×10^7 cells, the total cellular RNA was isolated by the guanidinium isothiocyanate-cesium chloride method [Chirgwin et al., Biochemistrv 18, 5294-5299 (1979), which is hereby incorporated by reference]. Equal quantities of RNA from each cell sample were electrophoresed on a 1% agarose-formaldehyde gel, transferred to nitrocellulose, and hybridized with randomly primed, ^32 P-dCTP-labeled genomic HIV-1 probe pBH10 [Ratner et al., Nature 313, 277-284 (1985), which is hereby incorporated by reference]. Following hybridization, the blots were washed extensively, dried, and autoradiographed. […]

[3] = system: viral p24 antigen, ACH-2 cells; test: p24 antigen levels (ELISA) in PMA-induced ACH-2 cells; assay type: cell-based, HIV-1; details: 200 μM, PMA-induced ACH-2, FIG. 10
Procedure: 142, 431-438 (1989), which is hereby incorporated by reference]. However, vigorous HIV-1 production by ACH-2 cells is induced by addition of the phorbol ester PMA [Pomerantz et al., Cell 61, 1271-1276 (1990) and Michael et al., J. Virol 65, 1291-1303 (1991), which are hereby incorporated by reference]. This system was selected for these experiments. Logarithmically growing ACH-2 cells, suspended at a concentration of 3×10^5 /ml, were incubated with the hypusine inhibitors mimosine and HK-1 at a final concentration of 200 μM. After 8 hours, viral replication was activated by addition of PMA to these cells and to untreated controls (100 ng/ml final PMA concentration). […] An aliquot of each fraction was analyzed by slot blotting, using the pXC-1 genomic ribosomal DNA probe from rat containing the 18S rRNA coding sequence [Rimarachin, Szabo et al., In Vitro 28A, 705-707 (1992), which is hereby incorporated by reference], to determine the location within the gradient of 18S rRNA, i.e., the distribution of polysomes vs. monosomes. […] Following electrophoresis, the radio-labeled PCR products were visualized by autoradiography according to routine techniques, and the band intensities quantified by densitometric analysis and expressed relative to total product per gradient. […]

SMILES	cell membrane integrity / viability, uninfected CEM [1]	HIV-1 RNA splicing pattern [2]	viral p24 antigen in cells and supernatant [3]
Cc1c(O)c(=O)ccn1C [HK-1, 1,2-dimethyl-3-hydroxypyrid-4-one]	no such loss of membrane integrity was noted	apparent lack of 9-kb and 4-kb species	suppressive effect
N[C@@H](Cn1ccc(=O)c(O)c1)C(=O)O [L-Mimosine]	no such loss of membrane integrity was noted	apparent lack of the 9-kb species	suppressive effect
